The results in this text go back to patent US20260207615A1, “FLUOROPYRIDOPYRIMIDINE AND FLUOROQUINAZOLINE DERIVATIES AND METHODS OF USE THEREOF” (Frontier Medicines Corporation, priority 2022, published 2026).

The structures appear in SMILES notation.

This test deals with T1, KRAS G12C and cRAF interaction (Homo sapiens, UniProt P01116, C118S/C51S/C80L/G12C).
T1 construct: truncated version comprising amino acids 1-169
T1 sequence (P01116 1-169 isoform P01116-2 G12C/C51S/C80L/C118S): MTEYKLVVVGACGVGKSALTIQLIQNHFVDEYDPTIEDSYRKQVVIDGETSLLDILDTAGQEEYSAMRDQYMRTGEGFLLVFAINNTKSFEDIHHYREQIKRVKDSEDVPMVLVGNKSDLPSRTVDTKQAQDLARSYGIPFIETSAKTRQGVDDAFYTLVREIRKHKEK
Kind of test: Inhibition of KRAS G12C and cRAF binding (AlphaScreen). It is filed as biochemical. As to conditions: KRAS G12C (Cys-light, aa 1-169) preloaded with GMPPNP, cRaf RBD (aa 50-131), 2 hours incubation. The method in brief:
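Biotin-AviTag KRAS G12C (Cys-light C51S/C80L/C118S, aa 1-169, GMPPNP-loaded; 0.5 nM final)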
For orientation: Alpha assays give light when donor and acceptor beads are brought close together.
For the molecule `C=CC(=O)N1CCN(c2nc(OC[C@@]34CCCN3C[C@H](F)C4)nc3c(F)c(-c4cccc5ccc(F)c(CC)c45)ncc23)CC12COC2` [Example 45, 1-(8-(7-(8-ethyl-7-fluoronaphthalen-1-yl)-8-fluoro-2-(((2R,7aS)-2-fluorotetrahydro-1H-pyrrolizin-7a(5H)-yl)methoxy)pyrido[4,3-d]pyrimidin-4-yl)-2-oxa-5,8-diazaspiro[3.5]nonan-5-yl) prop-2-en-1-one], the IC50 (commonly the concentration that gives 50% inhibition) was less than 0.01 µM. With `C#Cc1c(F)ccc2cccc(-c3ncc4c(N5CCN(C(=O)/C=C/CN6C[C@H]7C[C@@H]6CO7)C6(COC6)C5)nc(OC[C@@]56CCCN5C[C@H](F)C6)nc4c3F)c12` [Example 46, (E)-4-((1R,4R)-2-oxa-5-azabicyclo[2.2.1]heptan-5-yl)-1-(8-(7-(8-ethynyl-7-fluoronaphthalen-1-yl)-8-fluoro-2-(((2R,7aS)-2-fluorotetrahydro-1H-pyrrolizin-7a(5H)-yl)methoxy)pyrido[4,3-d]pyrimidin-4-yl)-2-oxa-5,8-diazaspiro[3.5]nonan-5-yl) but-2-en-1-one], the IC50 is less than 0.01 µM. For `O=C(C#CCN1CC2CCC(C1)O2)N1CCN(c2nc(OC[C@@]34CCCN3C[C@H](F)C4)nc3c(F)c(-c4cccc5cccc(Cl)c45)ncc23)CC12COC2` [Example 47, 4-(8-oxa-3-azabicyclo[3.2.1]octan-3-yl)-1-(8-(7-(8-chloronaphthalen-1-yl)-8-fluoro-2-(((2R,7aS)-2-fluorotetrahydro-1H-pyrrolizin-7a(5H)-yl)methoxy)pyrido[4,3-d]pyrimidin-4-yl)-2-oxa-5,8-diazaspiro[3.5]nonan-5-yl) but-2-yn-1-one], the IC50 was in the range of 0.1 to 0.5 µM.

For `C#Cc1c(F)ccc2cccc(-c3ncc4c(N5CCN(C(=O)/C=C/c6cc(C)nc(C)n6)C6(COC6)C5)nc(OC[C@@]56CCCN5C[C@H](F)C6)nc4c3F)c12` [Example 48, (E)-3-(2,6-dimethylpyrimidin-4-yl)-1-(8-(7-(8-ethynyl-7-fluoronaphthalen-1-yl)-8-fluoro-2-(((2R,7aS)-2-fluorotetrahydro-1H-pyrrolizin-7a(5H)-yl)methoxy)pyrido[4,3-d]pyrimidin-4-yl)-2-oxa-5,8-diazaspiro[3.5]nonan-5-yl) prop-2-en-1-one], the IC50 was in the range of 0.01 to 0.1 µM. `C#Cc1c(F)ccc2cccc(-c3ncc4c(N5CCN(C(=O)/C(F)=C/c6ccnc(C)n6)C6(COC6)C5)nc(OC[C@@]56CCCN5C[C@H](F)C6)nc4c3F)c12` [Example 49, (Z)-1-(8-(7-(8-ethynyl-7-fluoronaphthalen-1-yl)-8-fluoro-2-(((2R,7aS)-2-fluorotetrahydro-1H-pyrrolizin-7a(5H)-yl)methoxy)pyrido[4,3-d]pyrimidin-4-yl)-2-oxa-5,8-diazaspiro[3.5]nonan-5-yl)-2-fluoro-3-(2-methylpyrimidin-4-yl) prop-2-en-1-one] displayed an IC50 of less than 0.01 µM. In the case of `C#Cc1c(F)ccc2cccc(-c3ncc4c(N5CCN(C(=O)C=C)C6(COC6)C5)nc(OC[C@@]56CCCN5C[C@H](F)C6)nc4c3F)c12` [Example 50, 1-(8-(7-(8-ethynyl-7-fluoronaphthalen-1-yl)-8-fluoro-2-(((2R,7aS)-2-fluorotetrahydro-1H-pyrrolizin-7a(5H)-yl)methoxy)pyrido[4,3-d]pyrimidin-4-yl)-2-oxa-5,8-diazaspiro[3.5]nonan-5-yl) prop-2-en-1-one] it was less than 0.01 µM; in that of `C=CC(=O)N1CCN(c2nc(OC[C@@]34CCCN3C[C@H](F)C4)nc3c(F)c(-c4c(Cl)c(C)cc5[nH]ncc45)ncc23)CC12COC2` [Example 51, 1-(8-(7-(5-chloro-6-methyl-1H-indazol-4-yl)-8-fluoro-2-(((2R,7aS)-2-fluorotetrahydro-1H-pyrrolizin-7a(5H)-yl)methoxy)pyrido[4,3-d]pyrimidin-4-yl)-2-oxa-5,8-diazaspiro[3.5]nonan-5-yl) prop-2-en-1-one], 0.01 to 0.1 µM; in that of `C=CC(=O)N1CCN(c2nc(OC[C@@]34CCCN3C[C@H](F)C4)nc3c(F)c(-c4c(C)cc(F)c5[nH]ncc45)ncc23)CC12COC2` [Example 52, 1-(8-(8-fluoro-7-(7-fluoro-5-methyl-1H-indazol-4-yl)-2-(((2R,7aS)-2-fluorotetrahydro-1H-pyrrolizin-7a(5H)-yl)methoxy)pyrido[4,3-d]pyrimidin-4-yl)-2-oxa-5,8-diazaspiro[3.5]nonan-5-yl) prop-2-en-1-one], not below 0.5 µM. `C=CC(=O)N1C(C)CN(c2nc(OC[C@@]34CCCN3C[C@H](F)C4)nc3c(F)c(-c4cccc5cccc(Cl)c45)ncc23)CC12COC2` (stereo partly drawn) [Example 53, 1-(8-(7-(8-chloronaphthalen-1-yl)-8-fluoro-2-(((2R,7aS)-2-fluorotetrahydro-1H-pyrrolizin-7a(5H)-yl)methoxy)pyrido[4,3-d]pyrimidin-4-yl)-6-methyl-2-oxa-5,8-diazaspiro[3.5]nonan-5-yl) prop-2-en-1-one] returned an IC50 of 0.01 to 0.1 µM.

`C=CC(=O)N1CCN(c2nc(OC[C@@]34CCCN3C[C@H](F)C4)nc3c(F)c(-c4cc(O)cc(Cl)c4C(F)(F)F)ncc23)CC12COC2` [Example 54, 1-(8-(7-(3-chloro-5-hydroxy-2-(trifluoromethyl)phenyl)-8-fluoro-2-(((2R,7aS)-2-fluorotetrahydro-1H-pyrrolizin-7a(5H)-yl)methoxy)pyrido[4,3-d]pyrimidin-4-yl)-2-oxa-5,8-diazaspiro[3.5]nonan-5-yl) prop-2-en-1-one] registered an IC50 of less than 0.01 µM. The molecule `CN(C)C/C=C/C(=O)N1CCN(c2nc(OC[C@@]34CCCN3C[C@H](F)C4)nc3c(F)c(-c4cc(O)cc(Cl)c4C4CC4)ncc23)CC12COC2` [Example 55, (E)-1-(8-(7-(3-chloro-2-cyclopropyl-5-hydroxyphenyl)-8-fluoro-2-(((2R,7aS)-2-fluorotetrahydro-1H-pyrrolizin-7a(5H)-yl)methoxy)pyrido[4,3-d]pyrimidin-4-yl)-2-oxa-5,8-diazaspiro[3.5]nonan-5-yl)-4-(dimethylamino)but-2-en-1-one] showed an IC50 of less than 0.01 µM. Turning to `O=C(/C=C/CN1[C@@H]2CC[C@H]1COC2)N1CCN(c2nc(OC[C@@]34CCCN3C[C@H](F)C4)nc3c(F)c(-c4cccc(Cl)c4C(F)(F)F)ncc23)CC12COC2` [Example 56, (E)-4-((1R,5S)-3-oxa-8-azabicyclo[3.2.1]octan-8-yl)-1-(8-(7-(3-chloro-2-(trifluoromethyl)phenyl)-8-fluoro-2-(((2R,7aS)-2-fluorotetrahydro-1H-pyrrolizin-7a(5H)-yl)methoxy)pyrido[4,3-d]pyrimidin-4-yl)-2-oxa-5,8-diazaspiro[3.5]nonan-5-yl) but-2-en-1-one], the IC50 was less than 0.01 µM. As for `O=C(/C=C/CN1C[C@@H]2C[C@H]1CO2)N1CCN(c2nc(OC[C@@]34CCCN3C[C@H](F)C4)nc3c(F)c(-c4cccc(Cl)c4C(F)(F)F)ncc23)CC12COC2` [Example 57, (E)-4-((1S,4S)-2-oxa-5-azabicyclo[2.2.1]heptan-5-yl)-1-(8-(7-(3-chloro-2-(trifluoromethyl)phenyl)-8-fluoro-2-(((2R,7aS)-2-fluorotetrahydro-1H-pyrrolizin-7a(5H)-yl)methoxy)pyrido[4,3-d]pyrimidin-4-yl)-2-oxa-5,8-diazaspiro[3.5]nonan-5-yl) but-2-en-1-one], the IC50 fell in the range of 0.01 to 0.1 µM. `Cc1cc(/C=C(\F)C(=O)N2CCN(c3nc(OC[C@@]45CCCN4C[C@H](F)C5)nc4c(F)c(-c5cccc6ccc(F)c(F)c56)ncc34)CC23COC3)nc(C)n1` [Example 59, (Z)-1-(8-(7-(7,8-difluoronaphthalen-1-yl)-8-fluoro-2-(((2R,7aS)-2-fluorotetrahydro-1H-pyrrolizin-7a(5H)-yl)methoxy)pyrido[4,3-d]pyrimidin-4-yl)-2-oxa-5,8-diazaspiro[3.5]nonan-5-yl)-3-(2,6-dimethylpyrimidin-4-yl)-2-fluoroprop-2-en-1-one] showed a half-inhibitory concentration (IC50) of less than 0.01 µM. Take `Cc1nccc(/C=C(\F)C(=O)N2CCN(c3nc(OC[C@@]45CCCN4C[C@H](F)C5)nc4c(F)c(-c5cccc6ccc(F)c(F)c56)ncc34)CC23COC3)n1` [Example 60, (Z)-1-(8-(7-(7,8-difluoronaphthalen-1-yl)-8-fluoro-2-(((2R,7aS)-2-fluorotetrahydro-1H-pyrrolizin-7a(5H)-yl)methoxy)pyrido[4,3-d]pyrimidin-4-yl)-2-oxa-5,8-diazaspiro[3.5]nonan-5-yl)-2-fluoro-3-(2-methylpyrimidin-4-yl) prop-2-en-1-one]: the IC50 was less than 0.01 µM. Consider `Cc1nccc(/C=C(\F)C(=O)N2CCN(c3nc(OC[C@@]45CCCN4C[C@H](F)C5)nc4c(F)c(-c5cccc6cccc(Cl)c56)ncc34)CC23COC3)n1` [Example 61], for which the IC50 is not below 0.5 µM.

Turning to `CCc1c(F)ccc2cccc(-c3ncc4c(N5CCN(C(=O)/C(F)=C/c6ccnc(C)n6)C6(COC6)C5)nc(OC[C@@]56CCCN5C[C@H](F)C6)nc4c3F)c12` [Example 62, (Z)-1-(8-(7-(8-ethyl-7-fluoronaphthalen-1-yl)-8-fluoro-2-(((2R,7aS)-2-fluorotetrahydro-1H-pyrrolizin-7a(5H)-yl)methoxy)pyrido[4,3-d]pyrimidin-4-yl)-2-oxa-5,8-diazaspiro[3.5]nonan-5-yl)-2-fluoro-3-(2-methylpyrimidin-4-yl) prop-2-en-1-one], the IC50 was less than 0.01 µM.

Consider `C#Cc1c(F)ccc2cccc(-c3ncc4c(N5CCN(C(=O)/C(F)=C/c6cc(C)nc(C)n6)C6(COC6)C5)nc(OC[C@@]56CCCN5C[C@H](F)C6)nc4c3F)c12` [Example 63, (Z)-3-(2,6-dimethylpyrimidin-4-yl)-1-(8-(7-(8-ethynyl-7-fluoronaphthalen-1-yl)-8-fluoro-2-(((2R,7aS)-2-fluorotetrahydro-1H-pyrrolizin-7a(5H)-yl)methoxy)pyrido[4,3-d]pyrimidin-4-yl)-2-oxa-5,8-diazaspiro[3.5]nonan-5-yl)-2-fluoroprop-2-en-1-one], for which the IC50 was less than 0.01 µM.
